Laboratory results from patent US11331299B2, “Medicinal use of serrulatane diterpenes” (The University of Sydney, priority 2016, dated 2022).

How the values were obtained:
[1] = tested on: H3K27 ac (increase); assay: Cell-based stimulation assay; conditions: 10 μM
[2] = molecular target: Deacetylase, Histone 7 (Homo sapiens, UniProt Q8WUI4); assay: Deacetylase, Histone 7 (PanLab); assay type: biochemical; conditions: assay year 2014, read-out: % Control Response
[3] = tested on: Nitric Oxide Synthase, Endothelial (eNOS); assay: Nitric Oxide Synthase, Endothelial (eNOS); assay type: biochemical; conditions: 10 μM; assay year 2014
[4] = molecular target: Deacetylase, Histone 5 (Homo sapiens, UniProt Q9UQL6); assay: Deacetylase, Histone 5 (PanLab); assay type: biochemical; conditions: assay year 2014, read-out: % Control Response
[5] = molecular target: sirtuin 1 (h) (activator effect) (Homo sapiens, UniProt Q96EB6); assay type: biochemical; conditions: 10 μM
[6] = molecular target: Deacetylase, Sirtuin SIRT6 (Homo sapiens, UniProt Q8N6T7); assay: Deacetylase, Sirtuin SIRT6 (PanLab); assay type: biochemical; conditions: assay year 2014, read-out: % Control Response
Chain of Deacetylase, Sirtuin SIRT6 (Q8N6T7 whole entry): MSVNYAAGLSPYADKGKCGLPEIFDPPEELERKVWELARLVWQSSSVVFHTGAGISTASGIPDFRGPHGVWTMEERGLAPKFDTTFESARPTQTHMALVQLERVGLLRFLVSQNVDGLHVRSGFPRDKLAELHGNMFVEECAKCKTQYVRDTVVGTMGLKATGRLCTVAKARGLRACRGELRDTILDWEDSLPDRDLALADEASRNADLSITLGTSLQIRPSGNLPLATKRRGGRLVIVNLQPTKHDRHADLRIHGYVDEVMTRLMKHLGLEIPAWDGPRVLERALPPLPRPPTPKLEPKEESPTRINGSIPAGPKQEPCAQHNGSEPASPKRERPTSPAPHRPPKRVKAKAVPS

[7] = molecular target: Deacetylase, Histone 4 (Homo sapiens, UniProt P56524); assay: Deacetylase, Histone 4 (PanLab); assay type: biochemical; conditions: assay year 2014, read-out: % Control Response
Chain of Deacetylase, Histone 4 (P56524 whole entry): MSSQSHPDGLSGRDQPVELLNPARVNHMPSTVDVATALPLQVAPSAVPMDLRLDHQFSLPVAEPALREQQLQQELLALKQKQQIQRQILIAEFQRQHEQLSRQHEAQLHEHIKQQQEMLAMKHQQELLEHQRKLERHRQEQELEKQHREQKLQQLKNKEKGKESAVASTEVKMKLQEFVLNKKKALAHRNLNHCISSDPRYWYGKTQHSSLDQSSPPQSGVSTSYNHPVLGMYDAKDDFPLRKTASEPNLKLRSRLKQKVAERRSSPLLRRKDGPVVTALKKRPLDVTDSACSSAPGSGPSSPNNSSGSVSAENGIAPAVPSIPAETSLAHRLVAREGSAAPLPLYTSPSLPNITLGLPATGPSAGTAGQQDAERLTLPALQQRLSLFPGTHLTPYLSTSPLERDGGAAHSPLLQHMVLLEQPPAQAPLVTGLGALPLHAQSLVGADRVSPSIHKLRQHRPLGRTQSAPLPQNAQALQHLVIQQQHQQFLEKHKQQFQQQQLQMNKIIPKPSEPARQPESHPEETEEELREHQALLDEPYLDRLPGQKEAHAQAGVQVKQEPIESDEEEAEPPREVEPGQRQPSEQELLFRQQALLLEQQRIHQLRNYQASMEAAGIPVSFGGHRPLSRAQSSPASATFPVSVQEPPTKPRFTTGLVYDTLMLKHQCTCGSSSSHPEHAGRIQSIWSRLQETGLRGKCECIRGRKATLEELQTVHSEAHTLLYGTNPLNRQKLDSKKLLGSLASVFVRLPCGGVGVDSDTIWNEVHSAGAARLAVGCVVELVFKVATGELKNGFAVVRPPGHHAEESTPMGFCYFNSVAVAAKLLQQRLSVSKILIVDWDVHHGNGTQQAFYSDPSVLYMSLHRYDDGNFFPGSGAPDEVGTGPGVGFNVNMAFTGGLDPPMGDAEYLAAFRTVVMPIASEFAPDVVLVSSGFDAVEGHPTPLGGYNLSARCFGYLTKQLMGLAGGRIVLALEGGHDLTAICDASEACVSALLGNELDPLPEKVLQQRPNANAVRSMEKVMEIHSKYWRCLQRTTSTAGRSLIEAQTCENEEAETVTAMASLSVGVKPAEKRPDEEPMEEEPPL

[8] = molecular target: Deacetylase, Histone 6 (Homo sapiens, UniProt Q9UBN7); assay: Deacetylase, Histone 6 (PanLab); assay type: biochemical; conditions: assay year 2014, read-out: % Control Response
Chain of Deacetylase, Histone 6 (Q9UBN7 whole entry): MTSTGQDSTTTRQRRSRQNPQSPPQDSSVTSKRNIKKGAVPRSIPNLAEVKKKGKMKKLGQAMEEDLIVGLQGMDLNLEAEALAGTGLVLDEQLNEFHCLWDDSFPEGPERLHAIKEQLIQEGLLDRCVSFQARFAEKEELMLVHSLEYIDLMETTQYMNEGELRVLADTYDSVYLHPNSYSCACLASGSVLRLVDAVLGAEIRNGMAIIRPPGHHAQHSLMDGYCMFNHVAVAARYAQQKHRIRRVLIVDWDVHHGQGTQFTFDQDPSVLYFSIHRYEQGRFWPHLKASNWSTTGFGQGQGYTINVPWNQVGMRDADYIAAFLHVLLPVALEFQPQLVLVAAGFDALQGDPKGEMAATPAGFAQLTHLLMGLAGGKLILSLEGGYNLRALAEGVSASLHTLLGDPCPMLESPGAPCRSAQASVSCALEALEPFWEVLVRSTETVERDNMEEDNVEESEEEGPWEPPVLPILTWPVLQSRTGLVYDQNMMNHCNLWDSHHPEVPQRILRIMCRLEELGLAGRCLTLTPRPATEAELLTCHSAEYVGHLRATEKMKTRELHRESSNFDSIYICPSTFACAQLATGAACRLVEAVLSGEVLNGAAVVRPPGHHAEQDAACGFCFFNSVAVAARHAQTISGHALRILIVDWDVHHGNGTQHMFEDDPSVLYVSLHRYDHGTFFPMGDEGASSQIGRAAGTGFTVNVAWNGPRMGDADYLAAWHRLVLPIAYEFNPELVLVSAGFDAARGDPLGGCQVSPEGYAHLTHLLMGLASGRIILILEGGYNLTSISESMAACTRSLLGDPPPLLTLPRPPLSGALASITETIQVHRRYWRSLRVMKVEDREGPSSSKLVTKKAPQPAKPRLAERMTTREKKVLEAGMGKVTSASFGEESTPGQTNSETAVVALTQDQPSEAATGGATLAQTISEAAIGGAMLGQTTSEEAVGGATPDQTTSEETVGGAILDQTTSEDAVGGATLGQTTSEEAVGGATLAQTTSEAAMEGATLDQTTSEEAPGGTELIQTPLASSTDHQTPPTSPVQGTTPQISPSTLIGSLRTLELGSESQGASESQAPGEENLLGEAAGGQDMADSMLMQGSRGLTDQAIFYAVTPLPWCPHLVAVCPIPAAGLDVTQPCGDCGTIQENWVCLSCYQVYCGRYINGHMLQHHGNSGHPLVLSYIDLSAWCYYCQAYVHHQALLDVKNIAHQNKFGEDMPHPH

[9] = molecular target: Deacetylase, Histone 8 (Homo sapiens, UniProt Q9BY41); assay: Deacetylase, Histone 8 (PanLab); assay type: biochemical; conditions: assay year 2014, read-out: % Control Response
Chain of Deacetylase, Histone 8 (Q9BY41 whole entry): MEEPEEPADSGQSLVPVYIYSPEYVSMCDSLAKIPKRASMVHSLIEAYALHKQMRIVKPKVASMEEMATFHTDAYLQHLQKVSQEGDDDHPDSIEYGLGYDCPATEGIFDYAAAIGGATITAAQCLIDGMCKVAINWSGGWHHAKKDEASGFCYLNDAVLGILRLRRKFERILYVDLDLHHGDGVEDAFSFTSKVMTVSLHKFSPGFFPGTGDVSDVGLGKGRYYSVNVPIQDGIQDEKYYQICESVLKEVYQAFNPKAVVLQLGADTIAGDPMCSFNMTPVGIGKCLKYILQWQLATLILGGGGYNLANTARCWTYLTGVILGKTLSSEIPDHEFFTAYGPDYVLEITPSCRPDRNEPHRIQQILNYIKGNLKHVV

[10] = molecular target: Deacetylase, Sirtuin SIRT3 (Homo sapiens, UniProt Q9NTG7); assay: Deacetylase, Sirtuin SIRT3 (PanLab); assay type: biochemical; conditions: assay year 2014, read-out: % Control Response
Chain of Deacetylase, Sirtuin SIRT3 (Q9NTG7 whole entry): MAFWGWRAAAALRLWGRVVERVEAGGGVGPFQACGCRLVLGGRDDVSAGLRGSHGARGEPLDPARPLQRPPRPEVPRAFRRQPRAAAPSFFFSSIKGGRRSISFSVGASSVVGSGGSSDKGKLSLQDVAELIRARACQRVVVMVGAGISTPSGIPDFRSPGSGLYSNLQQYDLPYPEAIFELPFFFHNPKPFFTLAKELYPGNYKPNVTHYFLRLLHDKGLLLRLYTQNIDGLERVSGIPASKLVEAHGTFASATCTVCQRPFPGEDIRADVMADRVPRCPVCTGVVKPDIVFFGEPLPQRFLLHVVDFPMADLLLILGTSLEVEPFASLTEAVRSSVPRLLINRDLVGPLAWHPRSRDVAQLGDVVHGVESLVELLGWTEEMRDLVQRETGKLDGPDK

[11] = molecular target: Nitric Oxide Synthase, Neuronal (nNOS) (Rattus norvegicus, UniProt P29476); assay: Nitric Oxide Synthase, Neuronal (nNOS); assay type: biochemical; conditions: assay year 2014, read-out: % Control Response
[12] = molecular target: Deacetylase, Sirtuin SIRT5 (Homo sapiens, UniProt Q9NXA8); assay: Deacetylase, Sirtuin SIRT5 (PanLab); assay type: biochemical; conditions: assay year 2014, read-out: % Control Response
Chain of Deacetylase, Sirtuin SIRT5 (Q9NXA8 37-310): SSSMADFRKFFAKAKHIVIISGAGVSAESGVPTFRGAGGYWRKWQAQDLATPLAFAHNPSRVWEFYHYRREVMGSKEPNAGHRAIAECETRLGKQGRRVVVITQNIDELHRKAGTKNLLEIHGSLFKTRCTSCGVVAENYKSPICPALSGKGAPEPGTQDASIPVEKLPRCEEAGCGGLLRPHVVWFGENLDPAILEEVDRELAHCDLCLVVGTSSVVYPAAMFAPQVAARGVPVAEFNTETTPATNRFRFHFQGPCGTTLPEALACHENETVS

[13] = molecular target: Deacetylase, Sirtuin SIRT1 (Homo sapiens, UniProt Q96EB6); assay: Deacetylase, Sirtuin SIRT1 (PanLab); assay type: biochemical; conditions: assay year 2014, read-out: % Control Response
[14] = molecular target: Deacetylase, Histone 10 (Homo sapiens, UniProt Q969S8); assay: Deacetylase, Histone 10 (PanLab); assay type: biochemical; conditions: assay year 2014, read-out: % Control Response
[15] = molecular target: enzymes (Bioprint panel) (Homo sapiens, UniProt P12821); assay: biochemical; conditions: ACE (h); 10 μM; read-out: % Inhibition of Control Values
[16] = molecular target: enzymes (Bioprint panel) (Homo sapiens, UniProt P08253); assay: biochemical; conditions: MMP-2 (h); 10 μM; read-out: % Inhibition of Control Values
[17] = molecular target: T1, JMJD1A (h) (Homo sapiens, UniProt Q9Y4C1); assay: Epigenetic enzyme assay, Demethylases (KDMs); assay type: biochemical; conditions: for inhibition at 10 µM: read-out: % Inhibition of Control Values
T1 sequence (Q9Y4C1 1-1321): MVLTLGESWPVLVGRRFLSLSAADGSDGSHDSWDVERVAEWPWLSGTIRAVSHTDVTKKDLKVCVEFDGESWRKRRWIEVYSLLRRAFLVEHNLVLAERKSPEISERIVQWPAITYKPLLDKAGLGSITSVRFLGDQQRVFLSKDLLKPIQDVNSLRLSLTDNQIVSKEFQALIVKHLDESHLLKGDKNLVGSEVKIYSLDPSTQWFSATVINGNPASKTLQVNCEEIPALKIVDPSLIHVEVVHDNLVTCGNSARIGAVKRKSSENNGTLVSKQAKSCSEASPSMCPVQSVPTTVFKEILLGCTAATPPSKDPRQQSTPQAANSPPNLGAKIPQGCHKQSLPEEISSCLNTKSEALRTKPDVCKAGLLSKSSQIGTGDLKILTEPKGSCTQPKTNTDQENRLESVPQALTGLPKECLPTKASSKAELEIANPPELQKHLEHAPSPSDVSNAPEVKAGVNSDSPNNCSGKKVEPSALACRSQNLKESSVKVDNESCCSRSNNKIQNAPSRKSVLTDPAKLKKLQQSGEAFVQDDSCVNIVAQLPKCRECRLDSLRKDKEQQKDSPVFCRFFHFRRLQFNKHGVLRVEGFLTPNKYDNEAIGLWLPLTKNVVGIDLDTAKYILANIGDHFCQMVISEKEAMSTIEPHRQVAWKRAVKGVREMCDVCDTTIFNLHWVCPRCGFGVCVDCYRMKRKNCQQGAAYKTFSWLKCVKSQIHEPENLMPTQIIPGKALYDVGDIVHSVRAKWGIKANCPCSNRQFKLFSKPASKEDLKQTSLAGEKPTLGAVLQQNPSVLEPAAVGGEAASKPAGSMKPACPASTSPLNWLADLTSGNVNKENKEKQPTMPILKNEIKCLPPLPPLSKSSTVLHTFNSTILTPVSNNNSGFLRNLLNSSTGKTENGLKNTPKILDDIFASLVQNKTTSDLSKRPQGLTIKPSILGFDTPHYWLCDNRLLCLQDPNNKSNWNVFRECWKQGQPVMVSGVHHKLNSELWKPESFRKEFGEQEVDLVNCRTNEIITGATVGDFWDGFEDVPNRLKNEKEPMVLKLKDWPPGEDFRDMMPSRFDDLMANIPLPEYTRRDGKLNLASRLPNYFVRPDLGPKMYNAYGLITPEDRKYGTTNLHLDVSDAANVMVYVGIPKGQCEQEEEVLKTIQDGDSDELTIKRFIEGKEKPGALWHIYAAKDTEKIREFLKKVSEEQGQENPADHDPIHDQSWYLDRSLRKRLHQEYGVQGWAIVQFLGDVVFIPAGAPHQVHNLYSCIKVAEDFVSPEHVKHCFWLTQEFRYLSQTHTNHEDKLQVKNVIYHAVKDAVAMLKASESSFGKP

[18] = tested on: H3K9 ac (increase); assay: Cell-based stimulation assay; conditions: 10 μM
[19] = molecular target: Deacetylase, Histone 3 (Homo sapiens, UniProt O15379); assay: Deacetylase, Histone 3 (PanLab); assay type: biochemical; conditions: assay year 2014, read-out: % Control Response
[20] = molecular target: Deacetylase, Sirtuin SIRT2 (Homo sapiens, UniProt Q8IXJ6); assay: Deacetylase, Sirtuin SIRT2 (PanLab); assay type: biochemical; conditions: assay year 2014, read-out: % Control Response
Chain of Deacetylase, Sirtuin SIRT2 (Q8IXJ6 whole entry): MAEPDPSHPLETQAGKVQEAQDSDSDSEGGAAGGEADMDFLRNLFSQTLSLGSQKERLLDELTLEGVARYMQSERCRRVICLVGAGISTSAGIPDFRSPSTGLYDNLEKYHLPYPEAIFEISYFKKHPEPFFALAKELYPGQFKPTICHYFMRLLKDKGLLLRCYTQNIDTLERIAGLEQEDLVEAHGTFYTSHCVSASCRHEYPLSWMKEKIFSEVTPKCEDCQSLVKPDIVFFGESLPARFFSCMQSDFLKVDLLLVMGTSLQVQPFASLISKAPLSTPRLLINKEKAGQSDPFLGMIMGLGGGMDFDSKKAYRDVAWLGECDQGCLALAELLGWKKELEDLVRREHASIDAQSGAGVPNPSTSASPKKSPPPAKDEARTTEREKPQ

[21] = molecular target: Deacetylase, Histone 11 (Homo sapiens, UniProt Q96DB2); assay: Deacetylase, Histone 11 (PanLab); assay type: biochemical; conditions: assay year 2014, read-out: % Control Response
[22] = tested on: Nitric Oxide Synthase, Inducible (iNOS); assay: Nitric Oxide Synthase, Inducible (iNOS); assay type: biochemical; conditions: 10 μM; assay year 2014
[23] = molecular target: Deacetylase, Histone 9 (Homo sapiens, UniProt Q9UKV0); assay: Deacetylase, Histone 9 (PanLab); assay type: biochemical; conditions: assay year 2014, read-out: % Control Response

Chain of Deacetylase, Histone 7 (Q8WUI4 whole entry): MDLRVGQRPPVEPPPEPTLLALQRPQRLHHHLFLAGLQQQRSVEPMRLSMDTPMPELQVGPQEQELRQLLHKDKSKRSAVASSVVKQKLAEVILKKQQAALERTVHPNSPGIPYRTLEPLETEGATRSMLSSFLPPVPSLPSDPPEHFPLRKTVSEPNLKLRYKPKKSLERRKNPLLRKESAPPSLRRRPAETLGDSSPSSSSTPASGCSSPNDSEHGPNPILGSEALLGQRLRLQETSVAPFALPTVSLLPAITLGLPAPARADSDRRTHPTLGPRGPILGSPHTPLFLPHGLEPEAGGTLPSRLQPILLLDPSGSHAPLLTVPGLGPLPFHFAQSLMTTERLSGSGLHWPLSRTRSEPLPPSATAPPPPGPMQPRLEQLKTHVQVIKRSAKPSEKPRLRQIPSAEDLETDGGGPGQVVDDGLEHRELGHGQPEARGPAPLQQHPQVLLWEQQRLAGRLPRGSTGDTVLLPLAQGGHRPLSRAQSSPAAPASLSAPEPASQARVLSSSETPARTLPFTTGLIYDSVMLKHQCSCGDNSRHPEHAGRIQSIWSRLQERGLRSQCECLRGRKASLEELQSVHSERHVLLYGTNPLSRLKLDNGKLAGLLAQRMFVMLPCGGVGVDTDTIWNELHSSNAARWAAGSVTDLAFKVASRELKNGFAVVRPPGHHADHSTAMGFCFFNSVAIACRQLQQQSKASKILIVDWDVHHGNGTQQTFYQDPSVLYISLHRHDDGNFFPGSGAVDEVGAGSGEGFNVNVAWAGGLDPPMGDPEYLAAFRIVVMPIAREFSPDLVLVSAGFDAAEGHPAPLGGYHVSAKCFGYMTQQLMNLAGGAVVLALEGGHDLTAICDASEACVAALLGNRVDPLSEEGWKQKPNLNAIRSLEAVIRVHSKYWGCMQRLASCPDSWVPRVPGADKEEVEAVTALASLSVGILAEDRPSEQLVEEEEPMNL

CC(C)=CCC[C@H](CO)[C@@H]1CC[C@@H](C)c2c1cc(C)c(O)c2O [Compound 1, 7,8,18-trihydroxyserrulat-14-ene]
% Stimulation Relative to Control [1]: −28% | remaining activity at 10 µM [2]: 1% | % Control Response [3]: 6% | remaining activity at 10 µM [4]: -9% | % Stimulation Relative to Control [5]: −5% | remaining activity at 10 µM [6]: 35% | remaining activity at 10 µM [7]: 4% | remaining activity at 10 µM [8]: 0% | remaining activity at 10 µM [9]: 29% | remaining activity at 10 µM [10]: -6% | remaining activity at 10 µM [11]: 14% | remaining activity at 10 µM [12]: -16% | remaining activity at 10 µM [13]: 6% | remaining activity at 10 µM [14]: 11% | inhibition at 10 µM [15]: 14% | inhibition at 10 µM [16]: 0% | % Inhibition of Control Values ([17]; 10 μM): significant inhibitory activity | inhibition at 10 µM ([17]; 10 μM): 80% | IC50 ([17]; Table 11, inhibition/concentration-response curve): 4.5 µM | % Stimulation Relative to Control [18]: −21% | remaining activity at 10 µM [19]: -5% | remaining activity at 10 µM [20]: 0% | remaining activity at 10 µM [21]: 9% | % Control Response [22]: 16% | remaining activity at 10 µM [23]: -14%

CC(C)=CCC[C@@H]1C(O)Oc2c(C)cc(O)c3c2[C@H]1CC[C@H]3C (some centres unmarked) [Compound 2, 5,18-epoxyserrulat-14-en-8,18-diol]
remaining activity at 10 µM [2]: -16% | % Control Response [3]: 5% | remaining activity at 10 µM [4]: -11% | remaining activity at 10 µM [6]: 18% | remaining activity at 10 µM [7]: -5% | remaining activity at 10 µM [8]: -17% | remaining activity at 10 µM [9]: 13% | remaining activity at 10 µM [10]: -9% | remaining activity at 10 µM [11]: 5% | remaining activity at 10 µM [12]: 24% | remaining activity at 10 µM [13]: -3% | remaining activity at 10 µM [14]: 9% | inhibition at 10 µM ([17]; 10 μM): 37% | remaining activity at 10 µM [19]: 25% | remaining activity at 10 µM [20]: 26% | remaining activity at 10 µM [21]: 5% | % Control Response [22]: 7% | remaining activity at 10 µM [23]: -13%

CC(C)=CCC[C@@H]1COc2c(C)cc(O)c3c2[C@H]1CC[C@H]3C [Compound 3, 5,18-epoxy-8-hydroxyserrulat-14-ene]
% Stimulation Relative to Control [1]: −25% | % Stimulation Relative to Control [5]: −4% | inhibition at 10 µM ([17]; 10 μM): -1% | % Stimulation Relative to Control [18]: −8%
